Laboratory results from US20090118332A1, “Therapeutic Agents - 551” (AstraZeneca AB, priority 2006, published 2009).

These compounds were tested against T1, human Fatty Acid Synthase (Homo sapiens, UniProt P49327) (assay: Human FAS enzyme assay (decrease in NADPH fluorescence)). Settings: % inhibition at a concentration of 100 μmolar.
T1 construct: made in house
Type: biochemical
Summary of the method: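 In-house human FAS was preincubated with compound and NADPH for 15 min at room temperature in 0.1 M Tris pH 7.5 with EDTA, glutathione and BSA. Malonyl CoA and acetyl CoA (500 μM and 150 μM in the added mix) were then added for 60 min. IC50 came from time-zero-subtracted NADPH fluorescence (340/460 nm).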

T1 sequence (P49327 whole entry): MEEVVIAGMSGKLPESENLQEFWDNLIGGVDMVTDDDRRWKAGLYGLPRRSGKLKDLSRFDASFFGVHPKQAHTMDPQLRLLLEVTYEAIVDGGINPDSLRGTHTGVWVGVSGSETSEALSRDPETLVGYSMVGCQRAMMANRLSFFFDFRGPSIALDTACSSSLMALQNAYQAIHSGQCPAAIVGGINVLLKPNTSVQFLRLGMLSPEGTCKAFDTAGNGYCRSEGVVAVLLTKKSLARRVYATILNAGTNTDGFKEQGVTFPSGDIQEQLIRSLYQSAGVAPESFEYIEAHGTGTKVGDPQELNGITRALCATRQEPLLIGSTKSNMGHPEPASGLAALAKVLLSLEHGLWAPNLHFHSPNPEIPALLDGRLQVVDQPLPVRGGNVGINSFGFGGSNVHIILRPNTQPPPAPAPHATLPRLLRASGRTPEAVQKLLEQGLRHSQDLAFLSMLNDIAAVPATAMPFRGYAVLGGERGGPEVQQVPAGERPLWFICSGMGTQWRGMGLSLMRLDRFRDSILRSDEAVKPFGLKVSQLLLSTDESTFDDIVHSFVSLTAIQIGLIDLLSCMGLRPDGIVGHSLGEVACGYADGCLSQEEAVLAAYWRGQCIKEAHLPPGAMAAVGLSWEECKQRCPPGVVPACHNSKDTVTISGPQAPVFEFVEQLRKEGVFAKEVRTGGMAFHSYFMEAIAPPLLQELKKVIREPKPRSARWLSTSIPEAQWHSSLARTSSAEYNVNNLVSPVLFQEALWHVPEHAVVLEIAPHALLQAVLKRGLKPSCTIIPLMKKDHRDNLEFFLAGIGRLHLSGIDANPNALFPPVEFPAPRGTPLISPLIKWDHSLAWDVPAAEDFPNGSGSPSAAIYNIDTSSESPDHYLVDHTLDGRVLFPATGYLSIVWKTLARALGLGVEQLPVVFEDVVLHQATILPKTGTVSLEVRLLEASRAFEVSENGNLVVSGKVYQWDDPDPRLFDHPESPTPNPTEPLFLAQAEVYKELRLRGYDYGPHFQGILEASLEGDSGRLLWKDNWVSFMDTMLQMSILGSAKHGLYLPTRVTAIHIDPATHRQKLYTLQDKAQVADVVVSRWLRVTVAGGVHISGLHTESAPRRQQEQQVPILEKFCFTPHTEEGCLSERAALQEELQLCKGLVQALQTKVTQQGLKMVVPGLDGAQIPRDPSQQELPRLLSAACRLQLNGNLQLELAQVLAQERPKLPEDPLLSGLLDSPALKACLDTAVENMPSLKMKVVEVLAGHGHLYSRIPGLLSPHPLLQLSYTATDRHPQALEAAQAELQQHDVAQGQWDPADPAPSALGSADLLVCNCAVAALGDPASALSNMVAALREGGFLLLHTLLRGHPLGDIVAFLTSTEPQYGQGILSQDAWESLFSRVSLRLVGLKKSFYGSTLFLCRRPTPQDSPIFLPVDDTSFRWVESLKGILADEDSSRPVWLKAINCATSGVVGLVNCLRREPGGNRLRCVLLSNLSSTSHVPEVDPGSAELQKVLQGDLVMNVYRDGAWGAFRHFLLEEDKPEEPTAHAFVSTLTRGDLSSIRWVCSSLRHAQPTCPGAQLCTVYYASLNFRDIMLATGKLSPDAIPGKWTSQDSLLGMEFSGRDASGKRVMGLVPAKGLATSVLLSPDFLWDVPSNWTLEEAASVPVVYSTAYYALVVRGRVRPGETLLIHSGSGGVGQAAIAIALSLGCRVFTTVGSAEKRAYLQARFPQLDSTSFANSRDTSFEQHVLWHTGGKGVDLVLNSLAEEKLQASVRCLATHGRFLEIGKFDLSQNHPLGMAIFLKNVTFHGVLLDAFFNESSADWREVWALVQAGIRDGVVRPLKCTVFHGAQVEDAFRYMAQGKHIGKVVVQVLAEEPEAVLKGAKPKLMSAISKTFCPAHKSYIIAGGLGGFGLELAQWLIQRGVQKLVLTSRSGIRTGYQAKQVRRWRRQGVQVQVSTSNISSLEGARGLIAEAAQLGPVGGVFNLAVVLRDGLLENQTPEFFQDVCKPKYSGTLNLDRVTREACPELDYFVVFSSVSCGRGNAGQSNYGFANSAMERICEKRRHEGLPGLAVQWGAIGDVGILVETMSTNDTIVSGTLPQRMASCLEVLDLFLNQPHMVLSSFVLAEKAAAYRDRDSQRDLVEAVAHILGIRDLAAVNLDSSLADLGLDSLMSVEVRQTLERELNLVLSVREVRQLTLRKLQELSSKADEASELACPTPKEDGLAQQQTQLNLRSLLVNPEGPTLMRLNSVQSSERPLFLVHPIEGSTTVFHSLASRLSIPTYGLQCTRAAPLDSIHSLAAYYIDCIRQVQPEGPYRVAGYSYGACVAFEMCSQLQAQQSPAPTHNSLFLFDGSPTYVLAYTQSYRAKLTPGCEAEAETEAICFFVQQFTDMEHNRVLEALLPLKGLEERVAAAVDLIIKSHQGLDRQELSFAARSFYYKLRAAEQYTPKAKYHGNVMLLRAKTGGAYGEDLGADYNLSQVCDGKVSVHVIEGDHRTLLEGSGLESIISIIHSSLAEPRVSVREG

Question: How did the inhibition at 100 µM turn out when CCS(=O)(=O)NC(C)(C)CNC(=O)Nc1cc(C(=O)N2CCC(c3ccc(C#N)cc3)CC2)ccc1C [Example 204, 3-[5-[4-(4-cyanophenyl)piperidine-1-carbonyl]-2-methyl-phenyl]-1-[2-(ethylsulfonylamino)-2-methyl-propyl]urea] was run?
Answer: 91%

Question: With Cc1ccc(C(=O)N2CCC(c3ccc(C#N)cc3)CC2)cc1NC(=O)NC1CCCN(S(C)(=O)=O)C1 (stereo not drawn) [Example 296, 1-[5-[4-(4-cyanophenyl)piperidine-1-carbonyl]-2-methyl-phenyl]-3-(1-methylsulfonyl-3-piperidyl)urea] as the compound, how does the inhibition at 100 µM read?
Answer: 103%

Question: With Cc1ccc(C(=O)N2CCC(c3ccc(C#N)cc3)CC2)cc1NC(=O)NCc1ccccc1 [Example 32, 3-benzyl-1-[5-[4-(4-cyanophenyl)piperidine-1-carbonyl]-2-methyl-phenyl]urea] as the compound, how does the inhibition at 100 µM read?
Answer: 95.5%

Question: With Cc1ccc(C(=O)N2CCC(c3ccc(C#N)cc3)CC2)cc1NC(=O)NCCCNS(C)(=O)=O [Example 215, 1-[5-[4-(4-cyanophenyl)piperidine-1-carbonyl]-2-methyl-phenyl]-3-(3-methanesulfonamidopropyl)urea] as the compound, how does the inhibition at 100 µM read?
Answer: 100%

Question: Cc1ccc(C(=O)N2CCC(c3ccc(C#N)cc3)CC2)cc1NC(=O)NCC(N)=O [Example 58, 2-[[5-[4-(4-cyanophenyl)piperidine-1-carbonyl]-2-methyl-phenyl]carbamoylamino]acetamide] was tested. Which inhibition at 100 µM did it give?
Answer: 89.9%

Question: Which inhibition at 100 µM does the source give for Cc1ccc(C(=O)N2CCC(c3ccc(C#N)cc3)CC2)cc1NC(=O)NCc1cccc(N)c1 [Example 85, 3-[(3-aminophenyl)methyl]-1-[5-[4-(4-cyanophenyl)piperidine-1-carbonyl]-2-methyl-phenyl]urea] here?
Answer: 93.6%

Question: Which inhibition at 100 µM does the source give for Cc1ccc(C(=O)N2CCC(c3ccc(C#N)cc3)CC2)cc1NC(=O)NCCN1CCCC1 [Example 137, 1-[5-[4-(4-cyanophenyl)piperidine-1-carbonyl]-2-methyl-phenyl]-3-(2-pyrrolidin-1-ylethyl)urea] here?
Answer: 87.9%

Question: Which inhibition at 100 µM does the source give for Cc1cc(C)c(C(=O)N2CCC(c3ccc(C#N)cc3)CC2)cc1NC(=O)NC(C)C [Example 13, 3-[5-[4-(4-cyanophenyl)piperidine-1-carbonyl]-2,4-dimethyl-phenyl]-1-propan-2-yl-urea] here?
Answer: 84.8%

Question: Cc1ccc(C(=O)N2CCC(c3ccc(C#N)cc3)CC2)cc1NC(=O)N1CCC(S(C)(=O)=O)C1 (stereo not drawn) [Example 344, N-[5-[4-(4-cyanophenyl)piperidine-1-carbonyl]-2-methyl-phenyl]-3-methylsulfonyl-pyrrolidine-1-carboxamide] was tested. Which inhibition at 100 µM did it give?
Answer: 112%

Question: How did the inhibition at 100 µM turn out when COc1ccc(C(=O)N2CCC(c3ccc(C#N)cc3)CC2)cc1NC(=O)NC(C)C [Example 6, 1-[5-[4-(4-cyanophenyl)piperidine-1-carbonyl]-2-methoxy-phenyl]-3-propan-2-yl-urea] was run?
Answer: 79.6%

Question: With Cc1ccc(C(=O)N2CCC(c3ccc(C#N)cc3)CC2)cc1NC(=O)N[C@H]1CCN(C(=O)OC(C)(C)C)C1 [Example 210, tert-butyl (3S)-3-[[5-[4-(4-cyanophenyl)piperidine-1-carbonyl]-2-methyl-phenyl]carbamoylamino]pyrrolidine-1-carboxylate] as the compound, how does the inhibition at 100 µM read?
Answer: 97.4%

Question: Cc1ccc(NC(=O)NCc2ccccc2F)cc1C(=O)N1CCC(c2ccc(C#N)cc2)CC1 [Example 23, 1-[3-[4-(4-cyanophenyl)piperidine-1-carbonyl]-4-methyl-phenyl]-3-[(2-fluorophenyl)methyl]urea] was tested. Which inhibition at 100 µM did it give?
Answer: 77%

Question: Which inhibition at 100 µM does the source give for COCCN1CCC(NC(=O)Nc2cc(C(=O)N3CCC(c4ccc(C#N)cc4)CC3)ccc2C)CC1 [Example 147, 1-[5-[4-(4-cyanophenyl)piperidine-1-carbonyl]-2-methyl-phenyl]-3-[1-(2-methoxyethyl)-4-piperidyl]urea] here?
Answer: 79.5%

Question: For COCc1ccc(C(=O)N2CCC(c3ccc(C#N)cc3)CC2)cc1NC(=O)NC(C)C [Example 365, 3-[5-[4-(4-cyanophenyl)piperidine-1-carbonyl]-2-(methoxymethyl)phenyl]-1-propan-2-ylurea], which inhibition at 100 µM is on record?
Answer: 82.5%

Question: How did the inhibition at 100 µM turn out when Cc1ccc(C(=O)N2CCC(c3ccc(C#N)cc3)CC2)cc1NC(=O)NCCN1CCNC1=O [Example 135, 1-[5-[4-(4-cyanophenyl)piperidine-1-carbonyl]-2-methyl-phenyl]-3-[2-(2-oxoimidazolidin-1-yl)ethyl]urea] was run?
Answer: 81.1%

Question: Cc1ccc(NC(=O)NC(C)C)cc1C(=O)N1CCC(c2ccc(C#N)cc2)CC1 [Example 404, 1-[3-[4-(4-cyanophenyl)piperidine-1-carbonyl]-4-methylphenyl]-3-propan-2-ylurea] was tested. Which inhibition at 100 µM did it give?
Answer: 76.5%

Question: For Cc1ccc(C(=O)N2CCC(c3ccc(C#N)cc3)CC2)cc1NC(=O)N[C@@H](CC(C)C)C(N)=O [Example 73, (2S)-2-[[5-[4-(4-cyanophenyl)piperidine-1-carbonyl]-2-methyl-phenyl]carbamoylamino]-4-methyl-pentanamide], which inhibition at 100 µM is on record?
Answer: 78.2%

Question: For Cc1ccc(C(=O)N2CCC(c3ccc(C#N)cc3)CC2)cc1NC(=O)NCCCC(=O)OC(C)(C)C [Example 51, tert-butyl 4-[[5-[4-(4-cyanophenyl)piperidine-1-carbonyl]-2-methyl-phenyl]carbamoylamino]butanoate], which inhibition at 100 µM is on record?
Answer: 101%

Question: How did the inhibition at 100 µM turn out when Cc1ccc(C(=O)N2CCC(c3ccc(C#N)cc3)CC2)cc1NC(=O)NCCCN1CCN(C)CC1 [Example 140, 1-[5-[4-(4-cyanophenyl)piperidine-1-carbonyl]-2-methyl-phenyl]-3-[3-(4-methylpiperazin-1-yl)propyl]urea] was run?
Answer: 79.2%

Question: With CCC(=O)N1CCCC(NC(=O)Nc2cc(C(=O)N3CCC(c4ccc(C#N)cc4)CC3)ccc2C)C1 (stereo not drawn) [Example 295, 3-[5-[4-(4-cyanophenyl)piperidine-1-carbonyl]-2-methyl-phenyl]-1-(1-propanoyl-3-piperidyl)urea] as the compound, how does the inhibition at 100 µM read?
Answer: 97.2%

Question: Which inhibition at 100 µM does the source give for Cc1ccc(C(=O)N2CCC(c3ccc(C#N)cc3)CC2)cc1NC(=O)N[C@@H]1CCCC[C@H]1N (relative stereo) [Example 305, 3-[(trans)-2-aminocyclohexyl]-1-[5-[4-(4-cyanophenyl)piperidine-1-carbonyl]-2-methyl-phenyl]urea] here?
Answer: 78.8%

Question: How did the inhibition at 100 µM turn out when COc1cccc(CCNC(=O)Nc2cc(C(=O)N3CCC(c4ccc(C#N)cc4)CC3)ccc2C)c1 [Example 65, 1-[5-[4-(4-cyanophenyl)piperidine-1-carbonyl]-2-methyl-phenyl]-3-[2-(3-methoxyphenyl)ethyl]urea] was run?
Answer: 99.8%

Question: Cc1ccc(C(=O)N2CCC(c3ccc(C#N)cc3)CC2)cc1NC(=O)NCCCO [Example 191, 1-[5-[4-(4-cyanophenyl)piperidine-1-carbonyl]-2-methyl-phenyl]-3-(3-hydroxypropyl)urea] was tested. Which inhibition at 100 µM did it give?
Answer: 92.2%

Question: CCS(=O)(=O)N1CC[C@H](NC(=O)Nc2cc(C(=O)N3CCC(c4ccc(C#N)cc4)CC3)ccc2C)C1 [Example 222, 3-[5-[4-(4-cyanophenyl)piperidine-1-carbonyl]-2-methyl-phenyl]-1-[(3S)-1-ethylsulfonylpyrrolidin-3-yl]urea] was tested. Which inhibition at 100 µM did it give?
Answer: 90.7%

Question: For Cc1ccc(C(=O)N2CCC(c3ccc(C#N)cc3)CC2)cc1NC(=O)NC1COc2ccccc2OC1 [Example 163, 1-[5-[4-(4-cyanophenyl)piperidine-1-carbonyl]-2-methyl-phenyl]-3-(2,6-dioxabicyclo[5.4.0]undeca-8,10,12-trien-4-yl)urea], which inhibition at 100 µM is on record?
Answer: 102%

Question: How did the inhibition at 100 µM turn out when Cc1ccc(C(=O)N2CCC(c3ccc(C#N)cc3)CC2)cc1NC(=O)NCCCNC(=O)N1CCOCC1 [Example 233, N-[3-[[5-[4-(4-cyanophenyl)piperidine-1-carbonyl]-2-methyl-phenyl]carbamoylamino]propyl]morpholine-4-carboxamide] was run?
Answer: 86.5%

Question: With Cc1ccc(C(=O)N2CCC(O)(c3ccc(Br)cc3)CC2)cc1NC(=O)NCc1ccccc1 [Example 40, 3-benzyl-1-[5-[4-(4-bromophenyl)-4-hydroxy-piperidine-1-carbonyl]-2-methyl-phenyl]urea] as the compound, how does the inhibition at 100 µM read?
Answer: 71.5%

Question: Cc1ccc(C(=O)N2CCC(c3ccc(C#N)cc3)CC2)cc1NC(=O)NC1CCCNC1=O (racemic) [Example 236, (RS)-1-[5-[4-(4-cyanophenyl)piperidine-1-carbonyl]-2-methyl-phenyl]-3-(2-oxo-3-piperidyl)urea] was tested. Which inhibition at 100 µM did it give?
Answer: 77.1%

Question: Cc1ccc(C(=O)N2CCC(c3ccc(C#N)cc3)CC2)cc1NC(=O)N[C@@H](CO)C(N)=O [Example 192, (2S)-2-[[5-[4-(4-cyanophenyl)piperidine-1-carbonyl]-2-methyl-phenyl]carbamoylamino]-3-hydroxy-propanamide] was tested. Which inhibition at 100 µM did it give?
Answer: 85.1%

Same assay, conditions: FAS enzyme assay, IC50 from fitted sigmoid curves

Question: For Cc1ccc(C(=O)N2CCC(O)(c3ccccc3)CC2)cc1NC(=O)NC(C)C [1-[5-(4-hydroxy-4-phenylpiperidine-1-carbonyl)-2-methylphenyl]-3-propan-2-ylurea], which “IC50, inhibition of human Fatty Acid Synthase” value (from here on “IC50, inhibition”) is on record?
Answer: do not have IC50s in the range of about 0.001 μM to about 30 μM

Question: COC(=O)C(CCn1cnnn1)NC(=O)Nc1cc(C(=O)N2CCC(c3ccc(C#N)cc3)CC2)ccc1C (stereo not drawn) [Methyl 2-[[5-[4-(4-cyanophenyl)piperidine-1-carbonyl]-2-methylphenyl]carbamoylamino]-4-(tetrazol-1-yl)butanoate] was tested. Which “IC50, inhibition” value did it give?
Answer: do not have IC50s in the range of about 0.001 μM to about 30 μM

Question: With COC(=O)[C@@H](NC(=O)Nc1cc(C(=O)N2CCC(c3ccc(C#N)cc3)CC2)ccc1C)c1ccccc1 [Methyl (2S)-2-[[5-[4-(4-cyanophenyl)piperidine-1-carbonyl]-2-methylphenyl]carbamoylamino]-2-phenylacetate] as the compound, how does the “IC50, inhibition” value read?
Answer: do not have IC50s in the range of about 0.001 μM to about 30 μM

Question: Which “IC50, inhibition” value does the source give for CS(=O)(=O)c1ccc(C(=O)N2CCC(c3ccc(C#N)cc3)CC2)cc1NC(=O)NCc1ccccc1 [3-benzyl-1-[5-[4-(4-cyanophenyl)piperidine-1-carbonyl]-2-methylsulfonylphenyl]urea] here?
Answer: do not have IC50s in the range of about 0.001 μM to about 30 μM
